According to article PMC11395333, “The Bifunctional Dimer Caffeine-Indan Attenuates α-Synuclein Misfolding, Neurodegeneration and Behavioral Deficits after Chronic Stimulation of Adenosine A1 Receptors” (International Journal of Molecular Sciences, 2024):

What was measured:
Assay type in all cases: in vivo, rat
[1] = tested on: male Sprague-Dawley rats; assay: Y-maze test after 7-day chronic i.p. CPA injection
Source text: All animals were housed and treated humanely following the guidelines from the following governing bodies: National Research Council (US) Committee for the Update of the Guide for the Care and Use of Laboratory Animals (Washington DC, USA, 2011); Canadian Council on Animal Care (CCAC); and the University of Saskatchewan Animal Research Ethics Board (AREB), which approved our Animal Use Protocol (#20070090 and #20170079). The animals were housed in cages of two, with access to food pellets and water ad libitum. The four treatments of the Sprague-Dawley rats consisted of the following: 1. Control (0.1% DMSO in 0.9% saline); 2. CPA; 3. […] Drugs were dissolved at 3 mg/mL in DMSO, and each drug was administered to the animals by daily i.p. injections (3 mg/kg or 5 mg/kg body weight) for 7 consecutive days. […] Then, on days 8 and 9 following the final injections, the animals were subjected to several behavioral tests. The Y-maze or the modified Y-maze is a rodent behavior test used to assess short-term spatial memory based on the innate inclination of animals to explore new areas not previously seen. In this study, the Y-maze test is used to assess short-term memory, especially hippocampal-dependent spatial memory. The maze is shaped like a “Y”, with each arm oriented at a 120° angle from one another. The arms are 50 cm in length, 15 cm in width and 35 cm in depth. For the first trial, which lasts 15 min, the animal is placed at the beginning of the “Start arm” and is free to explore this arm and another one (referred to as the “Old arm”), while the remaining arm (“New arm”) is blocked. This trial should give the animal time to explore and become acquainted with the maze’s two arms. After a resting period of 90 min, the blocked arm is opened, and the animal is placed again at the “Start arm”. […] This trial is then used to calculate the percentage of time the animals spent in each arm. A video camera was used to record the animal movement in both trials. Each experiment was repeated at least fifteen times per treatment and the average of each treatment is presented in the bar graphs as average means ± standard error of the mean (SEM).

[2] = tested on: male Sprague-Dawley rats; assay: Forced swim test after 7-day chronic i.p. CPA injection
Source text: All animals were housed and treated humanely following the guidelines from the following governing bodies: National Research Council (US) Committee for the Update of the Guide for the Care and Use of Laboratory Animals (Washington DC, USA, 2011); Canadian Council on Animal Care (CCAC); and the University of Saskatchewan Animal Research Ethics Board (AREB), which approved our Animal Use Protocol (#20070090 and #20170079). The animals were housed in cages of two, with access to food pellets and water ad libitum. The four treatments of the Sprague-Dawley rats consisted of the following: 1. Control (0.1% DMSO in 0.9% saline); 2. CPA; 3. […] Drugs were dissolved at 3 mg/mL in DMSO, and each drug was administered to the animals by daily i.p. injections (3 mg/kg or 5 mg/kg body weight) for 7 consecutive days. […] Then, on days 8 and 9 following the final injections, the animals were subjected to several behavioral tests. The forced swim test is used to assess depressive behavior such as despair and learned helplessness. The test is also used to assess the vigor and the ability of the animal to keep its head above the water in which the animals swim. In addition, the first and last three minutes of the test were manually scored for the ability of the rat to swim with all its four limbs. […] In addition, the ability of the animal to keep its head above water was scored. […] The forced swim test apparatus was a plexiglass cuboid measuring 30 cm in length, 30 cm in width and 60 cm in depth. The tank was then filled two-thirds with lukewarm water not exceeding 25 °C. Afterwards, the animal was left in the cylinder for 10 min during which its time spent immobile as well as its ability to swim and keep its head above water was analyzed. This trial was then used to calculate the percentage of time the animals spent immobile, as well as the vigor and success with which the animal swam. A video camera was used to record the animal movement in this test. The forced swim test was conducted the following day (day nine), giving the animals a sufficient resting period from the Y-maze and open field tests. Each experiment was repeated at least fifteen times per treatment, and the average of each treatment is presented in the bar graphs as average means ± SEM.

[3] = tested on: SN pars compacta and hippocampal CA1 neurons; assay: Fluoro-Jade C staining of brain slices (neurodegeneration)
Source text: All animals were housed and treated humanely following the guidelines from the following governing bodies: National Research Council (US) Committee for the Update of the Guide for the Care and Use of Laboratory Animals (Washington DC, USA, 2011); Canadian Council on Animal Care (CCAC); and the University of Saskatchewan Animal Research Ethics Board (AREB), which approved our Animal Use Protocol (#20070090 and #20170079). The animals were housed in cages of two, with access to food pellets and water ad libitum. The four treatments of the Sprague-Dawley rats consisted of the following: 1. Control (0.1% DMSO in 0.9% saline); 2. CPA; 3. […] Drugs were dissolved at 3 mg/mL in DMSO, and each drug was administered to the animals by daily i.p. injections (3 mg/kg or 5 mg/kg body weight) for 7 consecutive days. […] Then, on days 8 and 9 following the final injections, the animals were subjected to several behavioral tests. Fluro-Jade C (FJC) is a fluorescent marker for neurodegeneration (Millipore-Sigma, Oakville, ON, Canada; Cat# AG325). […] Initially, the microscope slides were immersed in 1% NaOH/80% ethanol for 5 min followed by 2 min immersion in 70% ethanol. The slides were then rinsed for 2 min with ultra-pure water. The microscope slides were further immersed in 0.06% KMnO4 for 10 min, followed by an additional rinse for 2 min with ultra-pure water. The slides were then stained with 0.004% FJC in 0.1% acetic acid for 20 min with gentle shaking on an orbital shaker. Lastly, the slides were rinsed three times in ultra-pure water for 1 min each, making sure to remove all the excess water after each rinse. The slides were then rinsed in xylene and allowed to dry overnight at 4 °C. Then they were treated with Prolong Gold Antifade Reagent from Invitrogen (Thermo Fisher Scientific, Waltham, MA, USA), and respective images were taken using a Zeiss LSM700 confocal microscope (Carl Zeiss Group, Canada) and analyzed with ImageJ (Public Domain). FJC fluorescence was obtained by exciting the dye with a 488 nm laser.

[4] = 5 mg/kg i.p. with 3 mg/kg CPA, 7 days
[5] = 3 or 5 mg/kg i.p. with 3 mg/kg CPA, 7 days
[6] = CPA 3 mg/kg i.p. daily for 7 days, alone

Row | SMILES | Y-maze, time spent in the start arm ([1]; 3 mg/kg i.p. with 3 mg/kg CPA, 7 days) | Y-maze, cognitive deficits [1, 4] | Y-maze, percentage of time spent in the novel arm ([1]; 3 or 5 mg/kg i.p. co-administered with 3 mg/kg CPA, 7 days) | Forced swim test, vigor and success scores [2, 4] | Forced swim test, immobility time [2, 5] | Forced swim test, motor deficits [2, 5] | FJC staining in SNc ([3]; 3 mg/kg and 5 mg/kg + CPA) | FJC, neurodegeneration in CA1 region of the hippocampus ([3]; 3 mg/kg or 5 mg/kg with CPA) | Y-maze, hippocampal-dependent spatial memory [1, 6] | Forced swim test, motor deficits [2, 6] | FJC fluorescence in SNc [3, 6] | FJC, degenerating neurons in CA1 region of the hippocampus [3, 6]
1 | Cn1c(=O)c2c(nc(CCCCCCNC3CCc4ccccc43)n2C)n(C)c1=O (stereo not drawn) [C8–6–I] | approximately 45% | significantly ameliorated the cognitive deficits caused by CPA | attenuated the learning deficits caused by CPA | significantly improved the ability to purposely swim and use all limbs, as well as the ability to keep their head above water | spent significantly less time being immobile compared to the CPA-treated rats | produced no significant motor deficits | did not significantly increase FJC staining compared to the vehicle control slices | prevented neurodegeneration in hippocampal slices |  |  |  | 
2 | OC[C@H]1O[C@@H](n2cnc3c(NC4CCCC4)ncnc32)[C@H](O)[C@@H]1O [CPA, N^6-Cyclopentyladenosine, reference compound] |  |  |  |  |  |  |  |  | induced hippocampal-dependent spatial memory deficits | induced an increase in motor deficits | increased the levels of FJC fluorescence compared to the control | much higher levels of degenerating CA1 pyramidal neurons compared to the control
